In ChEMBL document CHEMBL1201862, “PubChem BioAssay data set” (2004):
Active and inactive are the calls of the source.

Columns and labels:
[1] = molecular target: 5-hydroxytryptamine receptor 5A (Homo sapiens, UniProt P47898); experiment: Counterscreen for agonists of OPRM1-OPRD1 heterodimerization: luminescence-based cell-based high throughput dose response assay to identify agonists of 5-hydroxytryptamine (serotonin) 5A receptor (HTR5A). [Related pubchem assays (depositor defined):AID504326, AID504355, AID504692, AID504904, AID504905]; assay type: functional
[2] = molecular target: Delta-type opioid receptor (Homo sapiens, UniProt P41143); experiment: Counterscreen for agonists of heterodimerization of the mu 1 (OPRM1) and delta 1 (OPRD1) opioid receptors: Luminescence-based cell-based high throughput dose response assay to identify agonists of OPRD1 homodimerization. [Related pubchem assays (depositor defined):AID504326, AID504355, AID504692, AID504904, AID504905]; assay type: functional
Mu-type opioid receptor = Mu-type opioid receptor (Homo sapiens, UniProt P35372); experiment: Counterscreen for agonists of heterodimerization of the mu 1 (OPRM1) and delta 1 (OPRD1) opioid receptors: Luminescence-based cell-based high throughput dose response assay to identify agonists of OPRM1 homodimerization.; assay type: functional;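 also: U2OS cells expressing OPRM1 and beta-arrestin as split beta-galactosidase partners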
Cytochrome P450 3A4 = Cytochrome P450 3A4 (Homo sapiens, UniProt P08684);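 also: CYP3A4 tested as one member of a cytochrome P450 panel screen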
Cytochrome P450 2C9 = Cytochrome P450 2C9 (Homo sapiens, UniProt P11712)
Cytochrome P450 2D6 = Cytochrome P450 2D6 (Homo sapiens, UniProt P10635);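 also: CYP2D6 member of a cytochrome P450 panel assay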
[3] = inhibitors of SNCA 5'UTR-driven reporter translation, confirmation, H4 neuroglioma cells, luminescence (AID 1988); assay type: functional, cell-based
[4] = Luminescence Cell-Based Dose Response HTS to Identify Inhibitors of 5'UTR Stem-Loop Driven Prion Protein mRNA Translation in H4 Neuroglioblastoma Cells. [Related pubchem assays: 1827 (Project Summary), 1813 (Primary HTS)]; assay type: functional
cells [5] = assay type: functional
cells [6] = assay type: functional, cell-based
[7] = Vero E6 cell cytotoxicity, dose response, cytotoxicity control for non-replicating M. tuberculosis project, secondary assay (AID 492998); assay type: functional, VeroE6; details: Vero C1008
[8] = inhibitors of firefly luciferase expression or activity, dose response, H4 neuroglioma cells, luminescence (AID 1990); assay type: functional, cell-based
[9] = THP-1 cell cytotoxicity, dose response, cytotoxicity control for non-replicating M. tuberculosis project (AID 489025); assay type: functional
cells [10] = assay type: functional, cell-based; remark: listed apart in the source
[11] = Counterscreen for AddAB inhibitors: absorbance-based bacterial cell-based high throughput dose response assay for inhibitors of bacterial viability. [Related pubchem assays (depositor defined):AID435030, AID449728, AID449731, AID488942, AID488955, AID488956]; assay type: functional
Exodeoxyribonuclease V = molecular target: T1, Exodeoxyribonuclease V (Escherichia coli (strain K12), UniProt P04993+P07648+P08394); experiment: E. coli RecBCD inhibitors, dose response, counter-screen for AddAB inhibitor project, absorbance, V66 E. coli, mutant T4 phage (AID 492957); assay type: functional, cell-based, Escherichia coli str. K-12 substr. MG1655
T1 sequence (P04993 whole entry): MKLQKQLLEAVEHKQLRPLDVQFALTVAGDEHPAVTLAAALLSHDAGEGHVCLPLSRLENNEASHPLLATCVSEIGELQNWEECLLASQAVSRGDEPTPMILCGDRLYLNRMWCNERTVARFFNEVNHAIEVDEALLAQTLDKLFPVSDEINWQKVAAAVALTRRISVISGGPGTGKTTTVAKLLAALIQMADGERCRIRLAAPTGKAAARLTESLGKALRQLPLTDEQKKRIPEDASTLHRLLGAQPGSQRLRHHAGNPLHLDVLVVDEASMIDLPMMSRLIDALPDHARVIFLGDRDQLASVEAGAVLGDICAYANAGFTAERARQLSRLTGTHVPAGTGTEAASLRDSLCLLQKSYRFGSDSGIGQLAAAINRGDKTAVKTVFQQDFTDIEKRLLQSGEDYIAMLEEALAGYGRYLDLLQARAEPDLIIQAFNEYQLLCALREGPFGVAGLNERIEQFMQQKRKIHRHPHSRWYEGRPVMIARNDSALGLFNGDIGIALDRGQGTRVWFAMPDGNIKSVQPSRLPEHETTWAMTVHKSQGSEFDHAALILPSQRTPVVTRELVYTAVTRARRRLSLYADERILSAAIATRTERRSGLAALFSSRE
T1 sequence (P07648 whole entry): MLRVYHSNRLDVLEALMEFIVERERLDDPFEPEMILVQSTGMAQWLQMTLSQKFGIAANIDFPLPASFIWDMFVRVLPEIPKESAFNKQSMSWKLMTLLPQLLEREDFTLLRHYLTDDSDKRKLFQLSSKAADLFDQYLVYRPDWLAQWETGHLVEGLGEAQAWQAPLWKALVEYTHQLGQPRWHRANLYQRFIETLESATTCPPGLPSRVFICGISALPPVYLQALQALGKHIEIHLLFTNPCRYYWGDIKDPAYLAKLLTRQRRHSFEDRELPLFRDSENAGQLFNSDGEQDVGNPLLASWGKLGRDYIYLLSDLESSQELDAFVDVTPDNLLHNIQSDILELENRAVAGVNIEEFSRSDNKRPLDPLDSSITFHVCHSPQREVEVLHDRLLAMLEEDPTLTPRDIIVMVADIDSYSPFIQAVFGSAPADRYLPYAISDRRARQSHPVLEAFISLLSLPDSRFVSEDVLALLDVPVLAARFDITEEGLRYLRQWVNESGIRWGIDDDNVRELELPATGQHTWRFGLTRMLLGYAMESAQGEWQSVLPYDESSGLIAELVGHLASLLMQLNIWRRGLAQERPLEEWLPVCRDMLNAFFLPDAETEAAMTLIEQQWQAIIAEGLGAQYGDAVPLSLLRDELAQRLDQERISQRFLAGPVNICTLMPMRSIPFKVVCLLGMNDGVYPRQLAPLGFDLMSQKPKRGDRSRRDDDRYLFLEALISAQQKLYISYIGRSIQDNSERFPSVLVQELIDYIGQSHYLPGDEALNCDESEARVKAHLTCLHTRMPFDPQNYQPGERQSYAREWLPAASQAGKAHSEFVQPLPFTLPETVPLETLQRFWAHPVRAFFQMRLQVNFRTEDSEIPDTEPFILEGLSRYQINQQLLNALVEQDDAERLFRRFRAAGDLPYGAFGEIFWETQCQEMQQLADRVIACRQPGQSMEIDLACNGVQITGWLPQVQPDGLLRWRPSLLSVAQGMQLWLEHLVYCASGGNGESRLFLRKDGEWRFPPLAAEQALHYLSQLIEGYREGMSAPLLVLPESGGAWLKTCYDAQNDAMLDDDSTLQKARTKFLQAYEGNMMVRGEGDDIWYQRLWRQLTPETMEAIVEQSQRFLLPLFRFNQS
T1 sequence (P08394 whole entry): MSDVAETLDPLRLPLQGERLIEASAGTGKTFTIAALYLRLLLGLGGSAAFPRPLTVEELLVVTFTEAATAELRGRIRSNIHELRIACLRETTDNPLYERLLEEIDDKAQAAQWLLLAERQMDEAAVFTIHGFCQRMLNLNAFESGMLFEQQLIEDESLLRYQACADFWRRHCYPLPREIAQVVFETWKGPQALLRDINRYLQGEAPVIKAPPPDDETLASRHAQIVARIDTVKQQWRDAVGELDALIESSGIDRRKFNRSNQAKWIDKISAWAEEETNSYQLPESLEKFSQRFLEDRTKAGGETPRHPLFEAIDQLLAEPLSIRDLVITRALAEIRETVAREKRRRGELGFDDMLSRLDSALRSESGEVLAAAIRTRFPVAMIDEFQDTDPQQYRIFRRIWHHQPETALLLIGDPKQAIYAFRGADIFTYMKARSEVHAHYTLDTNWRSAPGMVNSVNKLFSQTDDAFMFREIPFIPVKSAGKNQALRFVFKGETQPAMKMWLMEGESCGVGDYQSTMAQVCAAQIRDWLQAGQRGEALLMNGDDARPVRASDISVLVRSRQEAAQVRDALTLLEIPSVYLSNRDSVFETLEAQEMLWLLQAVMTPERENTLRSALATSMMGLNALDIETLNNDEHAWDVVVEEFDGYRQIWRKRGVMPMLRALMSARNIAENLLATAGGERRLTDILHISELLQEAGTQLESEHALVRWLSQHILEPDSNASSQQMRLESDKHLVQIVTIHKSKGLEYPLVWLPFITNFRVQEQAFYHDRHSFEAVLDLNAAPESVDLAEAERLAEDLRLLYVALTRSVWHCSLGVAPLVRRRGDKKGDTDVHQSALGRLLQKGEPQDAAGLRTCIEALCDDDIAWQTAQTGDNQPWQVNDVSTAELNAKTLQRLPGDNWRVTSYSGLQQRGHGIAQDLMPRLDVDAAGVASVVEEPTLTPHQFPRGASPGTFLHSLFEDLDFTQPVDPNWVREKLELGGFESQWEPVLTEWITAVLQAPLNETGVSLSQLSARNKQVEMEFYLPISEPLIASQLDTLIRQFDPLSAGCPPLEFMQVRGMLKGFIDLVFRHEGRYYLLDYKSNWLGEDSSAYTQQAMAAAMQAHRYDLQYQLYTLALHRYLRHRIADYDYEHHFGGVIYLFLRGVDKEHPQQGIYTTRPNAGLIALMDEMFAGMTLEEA

SUMO E1/E2 = SUMO E1/E2 (Homo sapiens, UniProt P63279+Q9UBE0+Q9UBT2); experiment: SAR analysis of SUMOylation using HTRF in an in-Vitro dose response assay. [Related pubchem assays (depositor defined):AID2006, AID2011, AID2018, AID2069, AID2658]; assay type: functional
Cytochrome P450 2C19 = Cytochrome P450 2C19 (Homo sapiens, UniProt P33261); experiment: Cytochrome panel assay with activity outcomes. Panel member name: p450-cyp2c19 Compounds with AC50 equal or less than 10 uM are considered active; assay type: functional; details: read-out: AC50
[12] = cytotoxicity toward NIH3T3 fibroblasts, dose response, counter-screen, cell-based, ATP luminescence, mouse fibroblasts (AID 2010); assay type: functional;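 also: cells exposed to compound for about 90 hours before reading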
[13] = inhibitors of intracellular T. cruzi replication, confirmation, NIH3T3 host cells, beta-gal luminescence (AID 2044); assay type: functional, cell-based;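 also: intracellular parasites grown in NIH/3T3 mouse fibroblasts as host cells; luminescent beta-galactosidase reporter signal from transgenic T. cruzi replicating inside host cells; inhibitors lower the luminescence signal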
INS1 = experiment: beta cell apoptosis inhibitors, cytokine rescue, dose response, luminescence, retest (AID 449756); assay type: functional, cell-based; details: Rattus norvegicus;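 also: cell death triggered by IL-1 beta plus TNF-alpha plus IFN-gamma mixture; protective hits raise ATP signal compared with cytokine alone wells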
HEK293 [14] = experiment: cells; details: Homo sapiens
HEK293 [15] = experiment: cells; details: Homo sapiens; remark: listed apart in the source
[16] = molecular target: SWI/SNF-related matrix-associated actin-dependent regulator of chromatin subfamily A member 2 (Homo sapiens, UniProt P51531); experiment: Luminescence-based cell-based high throughput dose response assay to identify activators of the function of SWI/SNF related, matrix associated, actin dependent regulator of chromatin, subfamily a, member 2 (SMARCA2, BRM).; assay type: functional
[17] = Counterscreen for activators of the function of SWI/SNF related, matrix associated, actin dependent regulator of chromatin, subfamily a, member 2 (SMARCA2, BRM): Luminescence-based cell-based high throughput dose response assay to identify non-selective compounds using the VP16 reporter assay.; assay type: functional

Chain of SUMO E1/E2 (Q9UBE0 whole entry): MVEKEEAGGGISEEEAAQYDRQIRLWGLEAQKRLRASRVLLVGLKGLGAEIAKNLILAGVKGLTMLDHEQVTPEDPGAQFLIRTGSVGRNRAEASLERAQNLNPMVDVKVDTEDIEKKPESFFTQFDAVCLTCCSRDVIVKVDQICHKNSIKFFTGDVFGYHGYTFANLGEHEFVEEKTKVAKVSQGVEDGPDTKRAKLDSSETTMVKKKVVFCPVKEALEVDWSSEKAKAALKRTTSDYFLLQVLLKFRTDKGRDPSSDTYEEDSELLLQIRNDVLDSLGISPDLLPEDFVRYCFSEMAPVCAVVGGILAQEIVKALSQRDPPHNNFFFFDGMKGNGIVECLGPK
Chain of SUMO E1/E2 (Q9UBT2 whole entry): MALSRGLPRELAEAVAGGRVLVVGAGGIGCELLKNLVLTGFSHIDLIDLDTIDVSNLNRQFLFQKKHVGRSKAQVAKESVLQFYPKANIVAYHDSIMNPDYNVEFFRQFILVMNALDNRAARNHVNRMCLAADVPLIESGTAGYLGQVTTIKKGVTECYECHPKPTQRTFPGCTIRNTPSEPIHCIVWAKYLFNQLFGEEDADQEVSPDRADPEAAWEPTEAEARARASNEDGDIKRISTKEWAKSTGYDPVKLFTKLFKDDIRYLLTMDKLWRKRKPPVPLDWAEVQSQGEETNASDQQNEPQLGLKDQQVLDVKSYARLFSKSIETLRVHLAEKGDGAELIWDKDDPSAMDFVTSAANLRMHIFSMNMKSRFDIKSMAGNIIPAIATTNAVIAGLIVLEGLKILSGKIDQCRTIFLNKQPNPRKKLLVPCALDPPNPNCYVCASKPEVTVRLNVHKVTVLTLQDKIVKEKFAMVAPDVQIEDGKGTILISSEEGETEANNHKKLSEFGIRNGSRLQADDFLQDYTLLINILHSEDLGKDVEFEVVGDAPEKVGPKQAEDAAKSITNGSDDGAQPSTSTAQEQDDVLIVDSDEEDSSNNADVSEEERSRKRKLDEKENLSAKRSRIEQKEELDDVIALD
Chain of SUMO E1/E2 (P63279 whole entry): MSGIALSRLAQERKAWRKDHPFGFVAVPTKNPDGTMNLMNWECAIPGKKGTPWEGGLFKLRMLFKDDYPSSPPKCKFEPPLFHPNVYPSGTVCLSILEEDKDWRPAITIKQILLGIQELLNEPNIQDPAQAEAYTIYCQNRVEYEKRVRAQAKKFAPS
Chain of Cytochrome P450 2D6 (P10635 whole entry): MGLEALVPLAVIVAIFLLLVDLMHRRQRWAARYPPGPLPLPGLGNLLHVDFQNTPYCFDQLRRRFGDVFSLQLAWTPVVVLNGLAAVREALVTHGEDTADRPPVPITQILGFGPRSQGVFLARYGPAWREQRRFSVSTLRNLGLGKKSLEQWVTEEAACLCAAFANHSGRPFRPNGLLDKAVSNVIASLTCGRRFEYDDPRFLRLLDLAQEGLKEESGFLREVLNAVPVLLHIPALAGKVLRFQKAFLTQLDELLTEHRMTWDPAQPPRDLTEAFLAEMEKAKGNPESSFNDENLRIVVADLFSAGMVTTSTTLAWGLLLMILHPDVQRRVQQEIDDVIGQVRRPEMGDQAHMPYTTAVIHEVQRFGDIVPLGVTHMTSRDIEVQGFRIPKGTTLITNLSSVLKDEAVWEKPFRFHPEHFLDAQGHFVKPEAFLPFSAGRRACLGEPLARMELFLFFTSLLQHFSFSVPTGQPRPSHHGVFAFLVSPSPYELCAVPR
Chain of Cytochrome P450 2C19 (P33261 whole entry): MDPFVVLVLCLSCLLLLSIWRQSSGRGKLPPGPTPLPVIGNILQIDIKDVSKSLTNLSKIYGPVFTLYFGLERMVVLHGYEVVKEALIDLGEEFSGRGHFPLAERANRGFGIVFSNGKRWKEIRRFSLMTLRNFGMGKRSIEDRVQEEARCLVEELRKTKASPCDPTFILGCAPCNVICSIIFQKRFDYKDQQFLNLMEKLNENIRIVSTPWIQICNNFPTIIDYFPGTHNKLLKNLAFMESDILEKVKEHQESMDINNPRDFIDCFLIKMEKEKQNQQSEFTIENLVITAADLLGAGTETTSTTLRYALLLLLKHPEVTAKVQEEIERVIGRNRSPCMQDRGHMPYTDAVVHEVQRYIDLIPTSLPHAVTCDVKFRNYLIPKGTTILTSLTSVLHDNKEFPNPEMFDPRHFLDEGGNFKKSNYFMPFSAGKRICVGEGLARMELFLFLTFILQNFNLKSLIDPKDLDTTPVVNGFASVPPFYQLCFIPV
Chain of Cytochrome P450 3A4 (P08684 whole entry): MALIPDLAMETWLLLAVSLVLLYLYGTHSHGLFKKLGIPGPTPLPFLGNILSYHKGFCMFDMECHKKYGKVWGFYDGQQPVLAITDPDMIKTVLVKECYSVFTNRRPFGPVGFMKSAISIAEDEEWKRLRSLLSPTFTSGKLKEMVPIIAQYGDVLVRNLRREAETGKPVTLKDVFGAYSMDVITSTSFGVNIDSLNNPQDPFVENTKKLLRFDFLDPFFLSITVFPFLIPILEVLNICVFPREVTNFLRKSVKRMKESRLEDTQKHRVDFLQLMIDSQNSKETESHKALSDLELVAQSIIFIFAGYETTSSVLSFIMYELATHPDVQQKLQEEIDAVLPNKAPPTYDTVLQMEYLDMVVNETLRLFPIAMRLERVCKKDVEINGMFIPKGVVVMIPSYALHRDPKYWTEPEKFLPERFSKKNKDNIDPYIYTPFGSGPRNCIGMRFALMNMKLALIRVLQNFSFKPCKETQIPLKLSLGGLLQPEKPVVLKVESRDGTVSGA
Chain of SWI/SNF-related matrix-associated actin-dependent regulator of chromatin subfamily A member 2 (P51531 whole entry): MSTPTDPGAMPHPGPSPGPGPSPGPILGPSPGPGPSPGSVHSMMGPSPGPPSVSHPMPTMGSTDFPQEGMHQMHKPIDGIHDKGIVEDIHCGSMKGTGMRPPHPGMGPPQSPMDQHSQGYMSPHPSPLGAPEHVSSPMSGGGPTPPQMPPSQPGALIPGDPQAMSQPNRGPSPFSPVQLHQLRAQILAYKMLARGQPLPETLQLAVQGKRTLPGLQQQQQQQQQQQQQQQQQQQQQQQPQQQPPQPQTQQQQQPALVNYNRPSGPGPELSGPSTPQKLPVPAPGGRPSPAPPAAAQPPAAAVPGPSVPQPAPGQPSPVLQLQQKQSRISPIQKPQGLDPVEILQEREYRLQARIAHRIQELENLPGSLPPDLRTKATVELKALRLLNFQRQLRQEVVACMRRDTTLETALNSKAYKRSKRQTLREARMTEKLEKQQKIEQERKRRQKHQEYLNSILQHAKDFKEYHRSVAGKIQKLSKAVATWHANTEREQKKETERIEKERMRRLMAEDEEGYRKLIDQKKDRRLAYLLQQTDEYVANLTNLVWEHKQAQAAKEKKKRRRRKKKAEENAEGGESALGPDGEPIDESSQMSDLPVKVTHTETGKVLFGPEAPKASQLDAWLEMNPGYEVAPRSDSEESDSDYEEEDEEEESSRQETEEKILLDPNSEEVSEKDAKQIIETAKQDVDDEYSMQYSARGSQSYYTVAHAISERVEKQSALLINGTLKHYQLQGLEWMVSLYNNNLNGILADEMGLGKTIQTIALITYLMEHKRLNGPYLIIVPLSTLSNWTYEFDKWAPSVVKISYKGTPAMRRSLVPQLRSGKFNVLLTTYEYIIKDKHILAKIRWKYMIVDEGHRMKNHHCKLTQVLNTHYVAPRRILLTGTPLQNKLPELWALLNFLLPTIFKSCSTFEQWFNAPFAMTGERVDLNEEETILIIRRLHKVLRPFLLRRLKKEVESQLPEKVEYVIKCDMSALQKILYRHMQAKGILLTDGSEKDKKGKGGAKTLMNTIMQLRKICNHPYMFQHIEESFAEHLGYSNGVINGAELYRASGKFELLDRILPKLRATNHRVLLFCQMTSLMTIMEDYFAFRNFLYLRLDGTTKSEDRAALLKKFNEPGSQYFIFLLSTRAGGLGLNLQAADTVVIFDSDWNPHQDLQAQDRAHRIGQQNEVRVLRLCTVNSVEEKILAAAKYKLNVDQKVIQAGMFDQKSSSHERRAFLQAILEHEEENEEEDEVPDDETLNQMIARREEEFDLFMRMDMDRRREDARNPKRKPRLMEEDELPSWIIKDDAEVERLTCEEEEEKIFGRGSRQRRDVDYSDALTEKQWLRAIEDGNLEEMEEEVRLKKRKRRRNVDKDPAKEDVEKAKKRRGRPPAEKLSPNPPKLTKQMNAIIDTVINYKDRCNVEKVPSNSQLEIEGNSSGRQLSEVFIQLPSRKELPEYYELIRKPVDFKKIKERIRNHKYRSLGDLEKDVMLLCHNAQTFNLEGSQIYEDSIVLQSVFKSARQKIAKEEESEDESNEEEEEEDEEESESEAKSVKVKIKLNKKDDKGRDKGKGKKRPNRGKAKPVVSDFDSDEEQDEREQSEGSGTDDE
Chain of Delta-type opioid receptor (P41143 whole entry): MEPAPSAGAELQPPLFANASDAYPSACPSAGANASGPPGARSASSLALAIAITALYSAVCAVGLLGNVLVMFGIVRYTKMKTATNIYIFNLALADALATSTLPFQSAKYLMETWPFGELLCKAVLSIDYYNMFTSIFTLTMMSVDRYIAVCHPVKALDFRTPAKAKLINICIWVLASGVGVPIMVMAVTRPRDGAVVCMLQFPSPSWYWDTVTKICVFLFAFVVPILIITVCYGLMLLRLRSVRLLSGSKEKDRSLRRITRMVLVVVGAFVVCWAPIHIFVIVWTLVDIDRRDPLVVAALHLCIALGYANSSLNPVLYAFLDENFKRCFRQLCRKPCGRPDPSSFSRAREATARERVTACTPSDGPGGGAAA
Chain of 5-hydroxytryptamine receptor 5A (P47898 whole entry): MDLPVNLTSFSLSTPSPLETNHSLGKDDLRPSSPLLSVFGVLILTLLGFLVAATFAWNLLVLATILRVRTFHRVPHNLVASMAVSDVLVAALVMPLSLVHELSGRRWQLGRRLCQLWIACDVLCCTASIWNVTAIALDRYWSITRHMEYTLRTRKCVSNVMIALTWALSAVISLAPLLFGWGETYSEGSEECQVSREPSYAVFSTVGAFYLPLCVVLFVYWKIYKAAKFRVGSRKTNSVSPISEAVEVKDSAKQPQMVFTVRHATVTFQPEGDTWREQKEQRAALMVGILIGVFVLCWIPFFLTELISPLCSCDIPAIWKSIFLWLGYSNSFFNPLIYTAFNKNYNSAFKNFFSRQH

## CCNS(=O)(=O)c1ccc(NC(=O)Nc2ccc3c(c2)OCO3)cc1
[1]
  EC50: > 92.5 µM (inactive)
[2]
  EC50: > 92.5 µM (inactive)
Mu-type opioid receptor
  EC50: 42.8 µM (inactive)

## CCOC(=O)c1c(C)c(C(=O)NCCN2CCOCC2)c(C)n1CC
Cytochrome P450 3A4
  AC50: 25.1 µM (inconclusive)
Cytochrome P450 2C9
  AC50: inconclusive
Cytochrome P450 2D6
  AC50: inconclusive

## CC(=O)Nc1nc2ccccc2n1CCOc1ccccc1Cl
[3]
  EC50: > 120 µM (not active)
[4]
  EC50: > 120 µM (not active)
Cells [5]
  IC50: 2.72 µM (active)
Cells [6]
  EC50: > 350 µM (not active)
[7]
  CC50: 17.5 µM (active)
[8]
  EC50: 16.7 µM (active)
[9]
  CC50: > 40 µM (active)
Cells [10]
  EC50: 56.5 µM (active)

## Cc1c(Br)c([N+](=O)[O-])nn1C(C)C(=O)NCc1ccco1 (stereo unspecified)
[11]
  IC50: > 119 µM (inactive)
Exodeoxyribonuclease V
  IC50: > 119 µM (inactive)

## O=C(NC(NC(=S)Nc1ccc(Cl)cc1)C(Cl)(Cl)Cl)c1ccco1 (stereo unspecified)
[11]
  IC50: > 119 µM (inactive)
Exodeoxyribonuclease V
  IC50: > 119 µM (inactive)

## Cc1ccc(C=Nc2ccccc2C(N)=O)s1
SUMO E1/E2
  IC50: 22.2 µM (active)

## NC(=O)/C(=N\O)c1ccccc1
Cytochrome P450 2C19
  AC50: 0.00562 µM (inconclusive)
Cytochrome P450 2D6
  AC50: inconclusive

## Fc1ccc(C2Nc3ccccc3C3C=CCC32)cc1 (stereo unspecified)
SUMO E1/E2
  IC50: > 100 µM (inactive)

## Cc1cc(N/N=C/c2ccc(O)cc2O)nc(-c2ccccc2O)n1
[11]
  IC50: > 119 µM (inactive)
[12]
  EC50: 4.8 µM (active)
Cells [6]
  EC50: > 350 µM (not active)
[13]
  EC50: 1.16 µM (active)
Cells [10]
  EC50: 8.62 µM (active)
INS1
  AC50: 0.734 µM (active)
Exodeoxyribonuclease V
  IC50: > 119 µM (inactive)

## CN(C)C(=S)N=c1ssc(=S)n1Cc1ccco1
HEK293 [14]
  EC50: > 59.6 µM (inactive)
HEK293 [15]
  EC50: > 59.6 µM (inactive)

## CCS(=O)(=O)c1c([N+](=O)[O-])ncn1C
Cells [5]
  IC50: 16.2 µM (active)
[7]
  CC50: > 20 µM (active)
[16]
  EC50: > 91.1 µM (inactive)
[9]
  CC50: > 40 µM (active)
[17]
  EC50: > 91.1 µM (inactive)
